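Each compound was tested at five concentrations against cells in 96-well plates for 48 hours. GI50 marks 50% less growth.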 The source made the active and inactive calls. No stated cut-off is given here; in the data, active = GI50 up to about 1.1 µM and inactive = higher.
Experiments:
Test in all cases: NCI tumour cell line growth inhibition, 48 h
[1] = test system: A498
[2] = test system: A549
[3] = test system: ACHN
[4] = test system: HL-60
[5] = test system: HOP-62
[6] = test system: HOP-92
[7] = test system: K562
[8] = test system: KM12
[9] = test system: M19-MEL
[10] = test system: OVCAR-4
[11] = test system: RXF 393
[12] = test system: SF-295
[13] = test system: SK-MEL-28
[14] = test system: SK-MEL-2
[15] = test system: SR
[16] = test system: SW-620
[17] = test system: U-251
[18] = test system: UO-31
[19] = test system: BT-549
[20] = test system: MDA-MB-435

Measured: GI50

CC1(C)OC2OC(/C=C/[N+](=O)[O-])C3OC(C)(C)OC3C2O1 (centres undefined)
inactive: [1] 20.5 µM | [2] 20.3 µM | [3] 15.4 µM | [4] 2.94 µM | [5] 20.7 µM | [6] 8.43 µM | [7] 6.84 µM | [8] 17.2 µM | [9] 14.2 µM | [10] 16.3 µM | [11] 1.99 µM | [12] 19.5 µM | [13] 18.2 µM | [14] 18.2 µM | [15] 6.7 µM | [16] 3.27 µM | [17] 17.3 µM | [18] 20.4 µM

COc1ccc(Nc2nc3c(N)cc(C(F)(F)F)cc3nc2-c2ccccc2)cc1OC
inactive: [1] 31.8 µM | [2] 22 µM | [3] 12.8 µM | [4] 8.63 µM | [5] 24.9 µM | [6] 20.5 µM | [7] 63 µM | [8] 29.3 µM | [9] 22.5 µM | [10] 11.9 µM | [11] 25.7 µM | [12] 19.7 µM | [13] 26.2 µM | [14] 22 µM | [15] 92.7 µM | [16] 57.4 µM | [17] 11.3 µM | [18] 30.3 µM

COC1=C(C(=O)OC(C)(C)C)C23CCCCC2(C(C(=O)OC(C)(C)C)=C(OC)C3C(=O)OC(C)(C)C)C1C(=O)OC(C)(C)C (centres undefined)
inactive: [1] > 100 µM | [2] 23 µM | [3] 20.1 µM | [4] 6.81 µM | [5] > 100 µM | [6] 7.05 µM | [7] 9.64 µM | [8] 34 µM | [9] 25 µM | [10] 9.12 µM | [11] 27.6 µM | [12] 4.78 µM | [14] 4.18 µM | [15] 19.6 µM | [16] 60.3 µM | [17] 49.9 µM | [18] 9.35 µM

COc1c(C)c2c(c3c1c(=O)c1ccccc1n3C)C=CC(C)(C)O2
inactive: [1] 32.7 µM | [2] 5.41 µM | [3] 20.6 µM | [4] 9.73 µM | [5] 27.2 µM | [6] 31.9 µM | [7] 13.4 µM | [8] 17.9 µM | [9] 31.7 µM | [11] 51.5 µM | [12] 17.9 µM | [13] 22 µM | [14] 25 µM | [15] 12.5 µM | [16] 38 µM | [17] 21.8 µM | [18] 26.5 µM

COc1ccc(C(C)Nc2cc(OC)c(OC)c(OC)c2)cc1 (centres undefined)
inactive: [1] 4.45 µM | [2] 5.62 µM | [3] 8.87 µM | [4] 1.94 µM | [5] 2.88 µM | [6] 1.56 µM | [7] 2.19 µM | [8] 2.63 µM | [9] 4.75 µM | [10] 6.43 µM | [11] 3.27 µM | [12] 2.3 µM | [13] 3.24 µM | [14] 3.01 µM | [15] 3.1 µM | [16] 2.88 µM | [17] 2.75 µM | [18] 10.5 µM

N#CCCN(CCC#N)c1ccc(C(Sc2ccccc2)C(NC(=O)c2cc([N+](=O)[O-])ccc2Cl)C(=O)Sc2ccccc2)cc1 (centres undefined)
inactive: [1] 2.15 µM | [2] 2.88 µM | [3] 3.71 µM | [4] 1.4 µM | [5] 3.24 µM | [6] 5.58 µM | [7] 2.39 µM | [8] 3.53 µM | [9] 5.36 µM | [10] 6.15 µM | [11] 2.09 µM | [12] 3.37 µM | [13] 1.96 µM | [14] 2.3 µM | [15] 1.51 µM | [16] 2.19 µM | [17] 1.23 µM | [18] 2.2 µM

O=C(O)CCC(=O)OCN1C(=O)C2C3C=CC(C2C1=O)C1C2C(=O)N(COC(=O)CCC(=O)O)C(=O)C2C31 (centres undefined)
inactive: [1] > 100 µM | [2] > 100 µM | [3] > 67 µM | [4] 23.4 µM | [5] > 100 µM | [6] > 100 µM | [7] > 100 µM | [8] 97.5 µM | [9] > 61.1 µM | [10] > 100 µM | [11] > 100 µM | [12] > 100 µM | [13] > 100 µM | [14] > 100 µM | [15] 30.8 µM | [16] 38.4 µM | [17] > 65.8 µM | [18] 98.6 µM

Cc1cccc(NC(=O)c2cccc([N+](=O)[O-])c2O)c1C
inactive: [1] 28.5 µM | [2] 21.5 µM | [3] 28.6 µM | [19] 30.2 µM | [4] 13.4 µM | [5] 17.8 µM | [6] 16.4 µM | [7] 12.1 µM | [8] 23.6 µM | [9] 21.9 µM | [20] 29.2 µM | [10] 26.6 µM | [11] 12.6 µM | [12] 24.4 µM | [13] 44.5 µM | [14] 4.92 µM | [15] 20.1 µM | [16] 37.9 µM | [17] 25.3 µM | [18] 17.9 µM

Source: ChEMBL document CHEMBL1201862, “PubChem BioAssay data set” (2004)
